Assay results: US6225307A, “Viral treatment” (priority 2000, dated 2001)

Tested on: HIV-1 cell line, CEMIIIB
Test: Long term in vitro study, CEMIIIB cells, reverse transcriptase analysis
Type: cell-based
Set-up: Reverse transcriptase data: unit not given here
Experimental: A microtiter-based reveres transcriptase (RT) reaction is utilized (Buckheit et al (1991) AIDS Research and Human Retroviruses 7:295-302). Tritiated thymidine triphosphate (NEN)(TTP) is resuspended in distilled water at 5 Ci/ml. Poly rA and oligo dT are prepared as a stock solution which is kept at -20° C. The RT reaction buffer is prepared fresh on a daily basis and consists of 125 μl 1M EGTA, 125 μl water, 125 μl Triton X-100, 50 μl Tris (pH 7.4), 50 μl MDDT, and 40 μl 1M MgCl2. These three solutions are mixed together in a ratio of 1 part TTP, 2.5 parts poly rA:oligo dT, 2.5 parts reaction buffer and 4 parts distilled water. Ten microliters of this reaction mixture is placed in a round bottom microtiter place and 15 μl of virus containing supernatant is added and mixed. The plate is incubated at 37° C. and incubated for 60 minutes. Following reaction, the reaction volume is spotted onto filter mats, washed 6 times for 5 minutes each in a 5% sodium phosphate buffer, 2 times for 1 minute each in distilled water, 2 times for 1 minute each in 70% ethanol, and then dried. The dried filter mat is placed in a plastic sample bag, Betaplate scintillation fluid is added and the bag is heat sealed. Incorporated radioactivity is quantified utilizing a Wallac Microbeta scintillation counter.
Acute infection of most established human cell lines with HIV- I results in the eventual establishment of a constitutive virus-producing chronically infected cell line. The cells can be passaged for long periods of time in culture without loss of virus production. These cells may be utilized to evaluate the effects of anti-HIV compounds on syncytium formation or to evaluate the effects of anti-HIV compounds on levels of virus production from these cells. […] Each of the cells contains an integrated HIV genome or provirus. Chronically infected CEM, H9 and U937 cell lines have been prepared and cultured by Southern Research Institute, Frederick Md. and are available from them.
CEM-SS cells chronically infected with HIV isolate, for example SKI (CEM-SKI) are cultured in RPM1640 tissue culture medium supplemented with 10% fetal bovine serum and antibiotics. Selection is performed by culturing the cells in the presence of the compound to be tested in T25 flasks. CEM-SKI or other infected cells with no added drug are used as the control cells. Cells are allowed to grow to a density of approximately 1×10^6 cells/ml and are then passaged at a 1:10 dilution. After a period of time, usually one week intervals of drug treatment, cells are evaluated to determine if the inhibitory activity of the compound has been affected by treatment of the cells with either compounds. The drug concentration in the flask is then increased two-fold and the cells maintained as above.
The cell populations contain integrated copies of the HIV genome and constitutively produce HIV at relatively high levels or are latently infected and only produce virus after stimulation with phorbol esters, tumor necrosis factor or IL6(U1 and ACH2). Reductions in virus products were observed when quantifying supernatant reverse transcriptase activity,
Toxicity Values are measured by XTT and activity of the compound in the tests is measured by a Reverse Transcriptase analysis.
A long term in vitro study of 3-hexahydro-3-ethyl-1-methyl-2-oxo-1H-azepin-3-yl)phenyl ester of 4-chlorophenyl carbamic acid against an HIV-1 cell line, CEMIIIB was conducted at three different levels. The results with CEIIIB cells were reported at weekly intervals. The CEMIIIB is a […] of the CEMSS cell line and is a chronic HIV cell line.

CCC1(c2cccc(OC(=O)Nc3ccc(Cl)cc3)c2)CCCCN(C)C1=O (stereo not shown) [(4-chlorophenyl)-carbamic acid, 3-(hexahydro-3-ethyl-1-methyl-2-oxo-1H-azepin-3-yl) 2 phenyl ester]
Reverse transcriptase data, continued test: data remained consistent
Reverse transcriptase data (7 μg/ml, Day 4): 1643
Reverse transcriptase data (7 μg/ml, Day 11): 1294
Reverse transcriptase data (7 μg/ml, Day 18): 1521
Reverse transcriptase data (7 μg/ml, Day 25): 1725
Reverse transcriptase data (7 μg/ml, Day 32): 1239
Reverse transcriptase data (7 μg/ml, Day 39): 1341
Reverse transcriptase data (7 μg/ml, Day 46): 1694
Reverse transcriptase data (7 μg/ml, Day 53): 1287
Reverse transcriptase data (7 μg/ml, Day 60): 1631
Reverse transcriptase data (7 μg/ml, Day 67): 1245
Reverse transcriptase data (7 μg/ml, Day 71): 1483
Reverse transcriptase data (7 μg/ml, Day 74): 1502
Reverse transcriptase data (7 μg/ml, Day 88): 7383
Reverse transcriptase data (7 μg/ml, Day 95): 5512
Reverse transcriptase data (7 μg/ml, Day 102): 8512
Reverse transcriptase data (7 μg/ml, Day 109): 58104
Reverse transcriptase data (15 μg/ml, Day 4): 1526
Reverse transcriptase data (15 μg/ml, Day 11): 1168
Reverse transcriptase data (15 μg/ml, Day 18): 1241
Reverse transcriptase data (15 μg/ml, Day 25): 1361
Reverse transcriptase data (15 μg/ml, Day 32): 1168
Reverse transcriptase data (15 μg/ml, Day 39): 1162
Reverse transcriptase data (15 μg/ml, Day 46): 1084
Reverse transcriptase data (15 μg/ml, Day 53): 902
Reverse transcriptase data (15 μg/ml, Day 60): 1310
Reverse transcriptase data (15 μg/ml, Day 67): 1093
Reverse transcriptase data (15 μg/ml, Day 71): 1056
Reverse transcriptase data (15 μg/ml, Day 74): 763
Reverse transcriptase data (15 μg/ml, Day 88): 4415
Reverse transcriptase data (15 μg/ml, Day 95): 3205
Reverse transcriptase data (15 μg/ml, Day 102): 6902
Reverse transcriptase data (15 μg/ml, Day 109): 60170
Reverse transcriptase data (30 μg/ml, Day 4): 602
Reverse transcriptase data (30 μg/ml, Day 11): 265
Reverse transcriptase data (30 μg/ml, Day 18): 581
Reverse transcriptase data (30 μg/ml, Day 25): 496
Reverse transcriptase data (30 μg/ml, Day 32): 268
Reverse transcriptase data (30 μg/ml, Day 39): 381
Reverse transcriptase data (30 μg/ml, Day 46): 562
Reverse transcriptase data (30 μg/ml, Day 53): 308
Reverse transcriptase data (30 μg/ml, Day 60): 241
Reverse transcriptase data (30 μg/ml, Day 67): 301
Reverse transcriptase data (30 μg/ml, Day 71): 321
Reverse transcriptase data (30 μg/ml, Day 74): 202
Reverse transcriptase data (30 μg/ml, Day 88): 370
Reverse transcriptase data (30 μg/ml, Day 95): 299
Reverse transcriptase data (30 μg/ml, Day 102): 928
Reverse transcriptase data (30 μg/ml, Day 109): 2019
